Assay results taken from patent US6914045B2, “Glycopeptide antibiotics” (Wyeth Holdings Corporation, priority 2001, dated 2005).
In brackets after ≈: the same amount, converted by molar mass.

Experiments:
Assay in all cases: in vitro antibacterial evaluation, MIC by broth dilution
Assay type in all cases: cell-based
[1] = tested on: Escherichia coli; conditions: 18 hours at 35° C.
[2] = tested on: Enterococcus sp.; conditions: broth dilution, 18 hours at 35° C.
Method: (§1) Methods for in vitro Antibacterial Evaluation (Table 1)
(§2) The minimum inhibitory concentration (MIC), the lowest concentration of the antibiotic which inhibits growth of the test organism, is determined by the broth dilution method using Muller-Hinton II […] (Baltimore Biological Laboratories) following the recommendations of the National Committee for Clinical Laboratory Standards [Methods for dilution antimicrobial susceptibility tests for bacteria that grow aerobically, approved standard M7-A2, National Committee for Clinical Laboratory Standards, Villanova, Pa.].
(§3) An inoculum level of 5×10^5 CFU/mL, and a range of antibiotic concentrations (64-0.06 μg/mL) is used. […] The test organisms include a spectrum of Gram-positive bacteria comprised of Staphylococcus sp., Streptococcus sp. and Enterococcus sp. These organisms include recent clinical isolates that are resistant to methicillin, penicillin and/or vancomycin.

[3] = tested on: Streptococcus sp.; conditions: broth dilution, 18 hours at 35° C.
Method: as §1, §2, §3

[4] = tested on: Staphylococcus sp.; conditions: broth dilution, 18 hours at 35° C.
Method: as §1, §2, §3

## CC(c1ccccc1)C1NC(=O)CNC(=O)C(CO)NC(=O)C(C(O)C2CNC(=N)N2C2OC(CO)C(O)C(O)C2O)NC(=O)C(C(O)C2CNC(=N)N2)NC(=O)C(Cc2ccc(OC3OC(CO)C(OC4OC5COC6(CCC(C(C)(C)C)CC6)OC5C(O)C4O)C(O)C3O)cc2)NC1=O (stereo not shown) [Example 208]
[1]
  MIC Escherichia coli (ATCC 25922): 64 mg/L (≈ 44.7 µM)
  MIC Escherichia coli (GC 4559): >64 mg/L
  MIC Escherichia coli (GC 4560): 8 mg/L (≈ 5.59 µM)
[2]
  MIC Enterococcus avium (GC 4558): 4 mg/L (≈ 2.79 µM)
  MIC Enterococcus faecalis (ATCC 29212): 8 mg/L (≈ 5.59 µM)
  MIC Enterococcus faecalis (GC 2242): 8 mg/L (≈ 5.59 µM)
  MIC Enterococcus faecalis (GC 2691): 8 mg/L (≈ 5.59 µM)
  MIC Enterococcus faecalis (GC 3059): 8 mg/L (≈ 5.59 µM)
  MIC Enterococcus faecalis (GC 4552): 8 mg/L (≈ 5.59 µM)
  MIC Enterococcus faecalis (GC 4553): 8 mg/L (≈ 5.59 µM)
  MIC Enterococcus faecalis (GC 4554): 8 mg/L (≈ 5.59 µM)
  MIC Enterococcus faecalis (GC 6189): 8 mg/L (≈ 5.59 µM)
  MIC Enterococcus faecium (GC 2243): 8 mg/L (≈ 5.59 µM)
  MIC Enterococcus faecium (GC 4556): 8 mg/L (≈ 5.59 µM)
  MIC Enterococcus faecium (GC 4557): 8 mg/L (≈ 5.59 µM)
[2]; inoculum 5×10^5 CFU/mL, strain ATCC 29212
  MIC Enterococcus faecalis (ATCC 29212): 8 mg/L (≈ 5.59 µM)
[2]; inoculum 5×10^5 CFU/mL, strain GC 2242
  MIC Enterococcus faecalis (GC 2242): 8 mg/L (≈ 5.59 µM)
[2]; inoculum 5×10^5 CFU/mL, strain GC 2243
  MIC Enterococcus faecium (GC 2243): 8 mg/L (≈ 5.59 µM)
[2]; inoculum 5×10^5 CFU/mL, strain GC 2691
  MIC Enterococcus faecalis (GC 2691): 8 mg/L (≈ 5.59 µM)
[2]; inoculum 5×10^5 CFU/mL, strain GC 3059
  MIC Enterococcus faecalis (GC 3059): 8 mg/L (≈ 5.59 µM)
[2]; inoculum 5×10^5 CFU/mL, strain GC 4552
  MIC Enterococcus faecalis (GC 4552): 8 mg/L (≈ 5.59 µM)
[2]; inoculum 5×10^5 CFU/mL, strain GC 4553
  MIC Enterococcus faecalis (GC 4553): 8 mg/L (≈ 5.59 µM)
[2]; inoculum 5×10^5 CFU/mL, strain GC 4554
  MIC Enterococcus faecalis (GC 4554): 8 mg/L (≈ 5.59 µM)
[2]; inoculum 5×10^5 CFU/mL, strain GC 4556
  MIC Enterococcus faecium (GC 4556): 8 mg/L (≈ 5.59 µM)
[2]; inoculum 5×10^5 CFU/mL, strain GC 4557
  MIC Enterococcus faecium (GC 4557): 8 mg/L (≈ 5.59 µM)
[2]; inoculum 5×10^5 CFU/mL, strain GC 4558
  MIC Enterococcus avium (GC 4558): 4 mg/L (≈ 2.79 µM)
[2]; inoculum 5×10^5 CFU/mL, strain GC 6189
  MIC Enterococcus faecalis (GC 6189): 8 mg/L (≈ 5.59 µM)
[3]
  MIC Streptococcus agalactiae (GC 4564): 0.12 mg/L (≈ 0.0838 µM)
  MIC Streptococcus pneumoniae (ATCC 6301): <0.06 mg/L
  MIC Streptococcus pneumoniae (GC 1894): <0.06 mg/L
  MIC Streptococcus pneumoniae (GC 4565): <0.06 mg/L
  MIC Streptococcus pyogenes (GC 4563): 0.12 mg/L (≈ 0.0838 µM)
[3]; inoculum 5×10^5 CFU/mL, strain ATCC 6301
  MIC Streptococcus pneumoniae (ATCC 6301): <0.06 mg/L
[3]; inoculum 5×10^5 CFU/mL, strain GC 1894
  MIC Streptococcus pneumoniae (GC 1894): <0.06 mg/L
[3]; inoculum 5×10^5 CFU/mL, strain GC 4563
  MIC Streptococcus pyogenes (GC 4563): 0.12 mg/L (≈ 0.0838 µM)
[3]; inoculum 5×10^5 CFU/mL, strain GC 4564
  MIC Streptococcus agalactiae (GC 4564): 0.12 mg/L (≈ 0.0838 µM)
[3]; inoculum 5×10^5 CFU/mL, strain GC 4565
  MIC Streptococcus pneumoniae (GC 4565): <0.06 mg/L
[4]; strain ATCC 29213
  MIC Staphylococcus aureus (ATCC 29213): 4 mg/L (≈ 2.79 µM)
[4]; strain GC 1131
  MIC Staphylococcus aureus (GC 1131): 8 mg/L (≈ 5.59 µM)
[4]; strain GC 3051
  MIC Staphylococcus aureus (GC 3051): 4 mg/L (≈ 2.79 µM)
[4]; strain GC 3053
  MIC Staphylococcus aureus (GC 3053): 4 mg/L (≈ 2.79 µM)
[4]; strain GC 4541
  MIC Staphylococcus aureus (GC 4541): 8 mg/L (≈ 5.59 µM)
[4]; strain GC 4542
  MIC Staphylococcus aureus (GC 4542): 4 mg/L (≈ 2.79 µM)
[4]; strain GC 4543
  MIC Staphylococcus aureus-SMITH (GC 4543): 4 mg/L (≈ 2.79 µM)
[4]; strain GC 4544
  MIC Staphylococcus aureus (GC 4544): 8 mg/L (≈ 5.59 µM)
[4]; strain GC 4545
  MIC Staphylococcus aureus (GC 4545): 4 mg/L (≈ 2.79 µM)
[4]; strain GC 4546
  MIC Staphylococcus haemolyticus (GC 4546): 4 mg/L (≈ 2.79 µM)
[4]; strain GC 4547
  MIC Coagulase Negative Staphylococcus (GC 4547): 4 mg/L (≈ 2.79 µM)
[4]; strain GC 4548
  MIC Coagulase Negative Staphylococcus (GC 4548): 4 mg/L (≈ 2.79 µM)
[4]; strain GC 4549
  MIC Coagulase Negative Staphylococcus (GC 4549): 4 mg/L (≈ 2.79 µM)
[4]; strain GC 4551
  MIC Coagulase Negative Staphylococcus (GC 4551): 4 mg/L (≈ 2.79 µM)
[4]; strain GC 6257
  MIC Coagulase Negative Staphylococcus (GC 6257): 4 mg/L (≈ 2.79 µM)
